Publication PMC11378297, “Discovery and Profiling of New Multimodal Phenylglycinamide Derivatives as Potent Antiseizure and Antinociceptive Drug Candidates” (ACS Chemical Neuroscience, 2024)
Read-outs that look alike come from different tables or passages of the source.

How the values were obtained:
[1] = system: body temperature, mice; assay: capsaicin-induced hypothermia test / rectal temperature; format: in vivo, mouse
Method: In this study, we used the capsaicin-induced hypothermia model in mice to evaluate the effect of eutomers (R)-31, (R)-32, and (R)-33 on body temperature and to provide more data related to their on-target activity (i.e., antagonism of TRPV1) (Figure S5A–D). Capsaicin given i.p. at a dose of 5 mg/kg produced a marked decrease in rectal temperature at 15 min post injection (p < 0.0001). The temperature returned to normal values within 30–60 min after capsaicin injection. […] None of the tested compounds reversed the capsaicin-induced hypothermia.
The changes in body temperature in the capsaicin-induced hypothermia model were evaluated as described previously. Eutomers (R)-31, (R)-32, and (R)-33 were suspended in a 1% Tween 80 and administered i.p. 15 min before injection of capsaicin (5 mg/kg, i.p.). The corresponding vehicles (1% DMSO or 1% Tween 80) were given to the control animals. Using an electronic thermometer (ThermoWorks, Alpine, Utah, USA), changes in the mouse’s rectal temperature were recorded by inserting the rectal probe approximately 2 cm into the mouse’s rectum. After −15, 0, 15, 30, 60, 90, 120, and 180 min, the measurements were collected. Subsequently, the variations in rectal temperature between the baseline ([…] for the groups receiving compounds and BCTC in conjunction with the vehicle, or […] for the groups receiving the vehicle, compounds, and BCTC in combination with the capsaicin) and the corresponding time point ΔT (°C) were computed and examined.
Figure S5. Acute effects of BCTC (A), (R)-31 (B), (R)-32 (C), and (R)-33 (D) on rectal temperature in the capsaicin-induced test in mice. Capsaicin (CPS) or vehicle (1% DMSO) were injected i.p. at 0 min, as indicated by the arrows.
BCTC, (R)-31, (R)-32, and (R)-33 were suspended in 1% Tween 80 and administered i.p. 15 min before CPS or vehicle injection. The temperature was measured at -15, 0, 15, 30, 60, 90, 120, and 180 min. Since body temperature returned to control values 60 min after CPS injection, subsequent measurements are not shown.
Data are presented as the mean differences (ΔT) in rectal temperature from 0 to -15 min (time point 0 min), from 15 to 0 min (time point 15 min), from 30 to 0 min (time point 30 min), and from 60 to 0 min (time point 60 min); n = 6–8 animals/group. Statistical significance was evaluated using one-way ANOVA with Tukey’s post hoc test: […]
(1 picture or pasted object on this page, not shown here)

[2] = biological target: T1, CB1 (h) (Homo sapiens, UniProt P21554); assay: CB1 (h) (agonist effect); format: cell-based; details: human recombinant CHO cells, read-out: % Inhibition of control specific binding (functional study, agonist effect)
T1 construct: host or cells: CHO cells
T1 sequence (P21554 whole entry): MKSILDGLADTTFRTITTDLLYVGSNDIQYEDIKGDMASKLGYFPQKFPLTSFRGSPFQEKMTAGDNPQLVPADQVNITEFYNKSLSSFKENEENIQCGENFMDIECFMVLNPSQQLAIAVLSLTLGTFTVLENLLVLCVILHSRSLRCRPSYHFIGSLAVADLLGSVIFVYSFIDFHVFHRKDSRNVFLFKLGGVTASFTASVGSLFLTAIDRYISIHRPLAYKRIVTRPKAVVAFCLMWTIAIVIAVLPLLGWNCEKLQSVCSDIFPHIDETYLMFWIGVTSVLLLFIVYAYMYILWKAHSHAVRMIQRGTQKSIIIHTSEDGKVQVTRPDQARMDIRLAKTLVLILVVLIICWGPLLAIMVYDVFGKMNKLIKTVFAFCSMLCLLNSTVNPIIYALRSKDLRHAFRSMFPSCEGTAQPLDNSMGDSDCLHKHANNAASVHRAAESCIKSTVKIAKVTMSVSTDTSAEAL
Method: (§1) Further in vitro functional studies confirmed TRPV1 antagonist activity for (R)-31–(R)-33.
(§2) Table S2. In vitro TRPV1 channel antagonist activity for compounds 3–12 (series A), 21–24 (series B) in […]
(§3) Cmpd % Inhibition of control Cmpd % Inhibition of control agonist responsea agonist responsea
(§4) *Source: human recombinant CHO cells. a Results showing activity higher than 50% are considered to represent significant […]
(§5) around the control level. Assays were performed commercially in Eurofins Laboratories (Poitiers, France).
(§6) Binding studies Source % Inhibition of control specific binding […]
(§7) Na+ channel (site 2) Rat cerebral 94.9 (100)
(§8) Cav1.2 (dihydropyridine Rat cerebral 58.0 (100) site, antagonist radioligand) cortex
(§9) Functional studies Source % Inhibition of control specific binding […]
(§10) (antagonist effect) CHO cells
(§11) (agonist effect) CHO cells
(§12) Table S9. Radioligand binding and functional assays.
(§13) Cav1.2 (L-type) (h) calcium ion channel cell-based antagonist calcium flux assay TRPV1 (VR1) (h) (antagonist effect)
(§14) TRPA1 (h) transient potential ion channel cell based antagonist calcium flux assay TRPM8 (h) (antagonist effect)
(§15) Cav1.2 (L-type) (dihydropyridine site, antagonist radioligand) […]
(§16) Assays were performed commercially in Eurofins Laboratories (Poitiers, France) or Eurofins Panlabs Discovery Services Taiwan, Ltd. (New Taipei City, Taiwan).

[3] = biological target: T2, TRPV1 (VR1) (h) (Homo sapiens, UniProt Q8NER1); assay: TRPV1 (VR1) (h) (antagonist effect); format: cell-based; details: 100 µM, human recombinant CHO cells
T2 construct: host or cells: CHO cells
T2 sequence (Q8NER1 whole entry): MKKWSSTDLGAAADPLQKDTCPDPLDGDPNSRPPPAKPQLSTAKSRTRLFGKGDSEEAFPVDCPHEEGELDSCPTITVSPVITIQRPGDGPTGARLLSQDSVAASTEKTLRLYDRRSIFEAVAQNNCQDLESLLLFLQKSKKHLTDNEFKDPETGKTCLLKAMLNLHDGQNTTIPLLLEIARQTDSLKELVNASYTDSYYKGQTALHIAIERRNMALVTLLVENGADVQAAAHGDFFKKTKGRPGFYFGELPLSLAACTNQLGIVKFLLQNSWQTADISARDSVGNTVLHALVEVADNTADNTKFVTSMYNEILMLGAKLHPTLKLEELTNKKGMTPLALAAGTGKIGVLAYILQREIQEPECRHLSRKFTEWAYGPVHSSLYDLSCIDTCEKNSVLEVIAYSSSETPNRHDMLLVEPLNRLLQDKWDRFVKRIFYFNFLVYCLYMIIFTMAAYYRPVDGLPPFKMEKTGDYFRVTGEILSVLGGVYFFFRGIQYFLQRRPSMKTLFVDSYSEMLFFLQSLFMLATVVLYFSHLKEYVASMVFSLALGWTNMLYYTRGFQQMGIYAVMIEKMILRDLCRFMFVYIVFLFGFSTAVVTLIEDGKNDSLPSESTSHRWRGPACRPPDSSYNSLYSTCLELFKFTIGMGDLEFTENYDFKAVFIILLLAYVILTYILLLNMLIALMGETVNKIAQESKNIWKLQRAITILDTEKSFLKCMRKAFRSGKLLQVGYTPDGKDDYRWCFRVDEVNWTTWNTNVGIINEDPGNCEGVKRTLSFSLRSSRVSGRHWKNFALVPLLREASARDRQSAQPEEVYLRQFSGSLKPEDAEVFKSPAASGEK
Method: as §1
(§17) Using previously described testing methodologies, binding/functional tests were conducted on a commercial basis at Eurofins Laboratories (Poitiers, France) and Eurofins Panlabs Discovery Services Taiwan, Ltd. (New Taipei City, Taiwan); see Table S9 for more information.
(§18) Table S9. Radioligand binding and functional assays. […]
TRPV1 (VR1) (h) (antagonist effect) […]
(§19) Assays were performed commercially in Eurofins Laboratories (Poitiers, France) or Eurofins Panlabs Discovery Services
(§20) Taiwan, Ltd. (New Taipei City, Taiwan).

[4] = system: Cav1.2 (dihydropyridine site); assay: Cav1.2 (dihydropyridine site, antagonist radioligand) binding; details: 100 µM, rat cerebral cortex
Method: as §1, §2, §3, §4, §5, §6, §7, §8, §9, §10, §11, §12, §13, §14, §15, §16

[5] = system: Na+ channel (site 2); assay: Na+ channel (site 2) radioligand binding; details: 100 µM, rat cerebral cortex
Method: The current body of literature consistently reports that both sodium (Navx) and Cav1.2 calcium ion channels can be involved in the pathogenesis of epilepsy[67]−[69] and neuropathic pain.[70]−[73] […] Therefore, we performed binding and functional studies toward sodium (site 2) and calcium Cav1.2 channels at concentrations of 10 μM for (R)-31−(R)-33.
as §17, §18, §19, §20

[6] = system: maximal electroshock (MES) seizures, mice; details: reference ASMs, i.p., pretreatment time 0.5 h (LCS, VPA) or 1.0 h (LEV, CBD), literature or own experiments; cited from earlier work
[7] = system: maximal electroshock (MES) seizures, mice; assay: maximal electroshock (MES) seizure test; format: in vivo; details: Mus musculus, ip; 100 mg/kg i.p., 0.5 h, mice; read-out: MES: number of mice protected/number of mice tested (converted)
Text: (§21) Both the aforementioned parameters (ED50 and TD50) enabled the calculation of protective indexes (PIs), which reflect the comparative the benefit–risk ratio of these experimental therapeutic agents.
(§22) Four mice per group were randomly assigned to each experimental group in the initial screening experiments (each mouse was used just once). Four groups, each with eight animals, received injections of different doses of the investigated substances in order to determine the ED50 or TD50 values. The PIs for the compounds investigated and reference ASMs were calculated by dividing the TD50 value, as determined in the chimney test by the respective ED50 value, as determined in the MES, scPTZ, or 6 Hz (32 mA or 44 mA) tests (PI = TD50/ED50). The PIs are a measure of the potential therapeutic window of the tested agent.
(§23) All substances were suspended in Tween 80 (1% aqueous solution) and administered i.p. as a single injection at a volume of 10 mL/kg. On each day of experimentation, fresh solutions were prepared.

[8] = system: 6 Hz (32 mA) seizures, mice; assay: 6 Hz (32 mA) psychomotor seizure test; format: in vivo; details: Mus musculus, ip, 100 mg/kg i.p., 0.5 h;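 note: compounds given as one i.p. dose suspended in 1% aqueous Tween 80, with the 6 Hz (32 mA) model considered to reflect focal epilepsy in humans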
Text: as §21, §22, §23

[9] = system: 6 Hz (44 mA) seizures, mice; details: reference ASMs, i.p., pretreatment time 0.5 h (LCS, VPA) or 1.0 h (LEV, CBD); cited from earlier work
[10] = system: 6 Hz (32 mA) seizures, mice; details: reference ASMs, i.p., pretreatment time 0.5 h (LCS, VPA) or 1.0 h (LEV, CBD); cited from earlier work
[11] = PAMPA (Precoated PAMPA Plate System Gentest) passive permeability; format: in vitro ADME; details: passive blood–brain barrier permeability model
[12] = read-out: % Inhibition of control agonist response
[13] = mice, read-out: 6 Hz (32 mA): number of mice protected/number of mice tested (converted)
[14] = four mice, read-out: protection in the 6 Hz (32 mA) test

## CC(C)(C)c1ccc(NC(=O)N2CCN(c3ncccc3Cl)CC2)cc1 [BCTC, reference compound]
[1]; 20 mg/kg with capsaicin 5 mg/kg i.p., p < 0.0001 at 15 and 30 min
  effect on capsaicin-induced hypothermia: alleviated the capsaicin-induced hypothermia
[1]; 20 mg/kg, 15 min after injection, p < 0.05
  effect on body temperature, administered alone: caused a significant increase in body temperature

## C=C(C)[C@@H]1CCC(C)=C[C@H]1c1c(O)cc(CCCCC)cc1O [CBD, cannabidiol]
[2]
  inhibition at 100 µM: 103%
[3]; read-out: % Inhibition of control specific binding (functional study, antagonist effect)
  inhibition at 100 µM: 47.8%
[4]
  % inhibition of control specific binding: 58.0%
[5]
  % inhibition of control specific binding: 94.9%
[6]
  ED50 MES: 80.0 mg/kg

## O=C(NC(C(=O)N1CCN(c2cccc(C(F)(F)F)c2)CC1)c1ccccc1)c1ccc(C(F)(F)F)cc1 (stereo not drawn) [Compound 9, N-(2-Oxo-1-phenyl-2-(4-(3-(trifluoromethyl)phenyl)piperazin-1-yl)ethyl)-4-(trifluoromethyl) Benzamide]
other
  melting point: 103.4 to 104.2 °C
[3]; [12]
  inhibition at 100 µM: 6.2%
[7]
  responders at 100 mg/kg: 0%
[8]; [13]
  responders at 100 mg/kg: 0%

## O=C(NC(C(=O)N1CCN(c2cccc(C(F)(F)F)c2)CC1)c1ccccc1)c1cc(C(F)(F)F)ccn1 (stereo not drawn) [Compound 11, N-(2-Oxo-1-phenyl-2-(4-(3-(trifluoromethyl)phenyl)piperazin-1-yl)ethyl)-4-(trifluoromethyl)picolinamide]
other
  melting point: 101.2 to 102.4 °C
[3]; [12]
  inhibition at 100 µM: -4.2%
[7]
  responders at 100 mg/kg: 0%
[8]; [13]
  responders at 100 mg/kg: 50%

## O=C(NC(C(=O)N1CCN(c2cccc(C(F)(F)F)c2)CC1)c1ccccc1)c1ccc(C(F)(F)F)cn1 (stereo not drawn) [Compound 12, N-(2-Oxo-1-phenyl-2-(4-(3-(trifluoromethyl)phenyl)piperazin-1-yl)ethyl)-5-(trifluoromethyl)picolinamide]
other
  melting point: 146.5 to 147.2 °C
[3]; [12]
  inhibition at 100 µM: -1.2%
[7]
  responders at 100 mg/kg: 0%
[8]; [13]
  responders at 100 mg/kg: 50%

## CC(=O)NC(C(=O)NC1CCN(c2ccccc2)C1)c1ccccc1 (stereo not drawn) [Compound 21, 2-Acetamido-2-phenyl-N-(1-phenylpyrrolidin-3-yl)acetamide]
other
  melting point: 189.7 to 190.5 °C
[3]; [12]
  inhibition at 100 µM: 4.2%
[7]
  responders at 100 mg/kg: 0%
[8]; [13]
  responders at 100 mg/kg: 0%

## CC(=O)NC(C(=O)NC1CCN(c2cccc(C(F)(F)F)c2)C1)c1ccccc1 (stereo not drawn) [Compound 22, 2-Acetamido-2-phenyl-N-(1-(3-(trifluoromethyl)phenyl)pyrrolidin-3-yl)acetamide]
other
  melting point: 203.7 to 204.4 °C
[3]; [12]
  inhibition at 100 µM: -8.4%
[7]
  responders at 100 mg/kg: 0%
[8]; [14]
  responders at 100 mg/kg: 50%
[8]; [13]
  responders at 100 mg/kg: 50%

## CC(=O)NC(C(=O)NC1CCN(c2cccc(OC(F)(F)F)c2)C1)c1ccccc1 (stereo not drawn) [Compound 23, 2-Acetamido-2-phenyl-N-(1-(3-(trifluoromethoxy)phenyl)pyrrolidin-3-yl)acetamide]
other
  melting point: 173.1 to 174.2 °C
[3]; [12]
  inhibition at 100 µM: -2.7%
[7]
  responders at 100 mg/kg: 0%
[8]; [14]
  responders at 100 mg/kg: 50%
[8]; [13]
  responders at 100 mg/kg: 50%

## CC(=O)NC(C(=O)NC1CCN(c2cccc(SC(F)(F)F)c2)C1)c1ccccc1 (stereo not drawn) [Compound 24, 2-Acetamido-2-phenyl-N-(1-(3-((trifluoromethyl)thio)phenyl)pyrrolidin-3-yl)acetamide]
other
  melting point: 168.8 to 169.7 °C
[3]; [12]
  inhibition at 100 µM: 1.3%
[7]
  responders at 100 mg/kg: 0%
[8]; [14]
  responders at 100 mg/kg: 25%
[8]; [13]
  responders at 100 mg/kg: 25%

## COC[C@@H](NC(C)=O)C(=O)NCc1ccccc1 [LCS, lacosamide]
[9]
  ED50 6 Hz (44 mA): 6.9 mg/kg
[10]
  ED50 6 Hz (32 mA): 5.3 mg/kg
[6]
  ED50 MES: 9.2 mg/kg

## Cn1c(=O)c2c(ncn2C)n(C)c1=O [caffeine, reference compound]
[11]
  permeability coefficient (Pe): 3.46 × 10^–6 cm/s
